From ChEMBL document CHEMBL1127805 (J Med Chem, 1994)
One block for each compound: values may come before it.

Assays:
Glutamate NMDA receptor [1] = assay: In vitro inhibition of [3H]glycine at NMDA receptor; type: protein-complex assay
Gerbillinae = assay: Compound was evaluated for neuroprotection, gerbil in vivo through ip route; type: functional
Glutamate NMDA receptor [2] = assay: Compound was evaluated for in vitro inhibition of [3H]-MK-801 at NMDA receptor.; type: protein-complex assay
Rattus norvegicus [3] = assay: Compound was evaluated for D-Ser-induced cGMP in vivo through ip route; type: functional
[4] = target: T1, Glutamate receptor ionotropic, NMDA 1 (Rattus norvegicus, UniProt P35439); assay: Compound was evaluated for in vitro inhibition of oocytes at NMDA receptor.; type: cell-based, frog; settings: oocyte
Mus musculus [5] = assay: Antagonist activity in plus-maze in vivo through intraperitoneal route; type: functional; settings: ip
Mus musculus [6] = assay: In vivo antagonist activity against seizures elicited by NMDA in mice administered intraperitoneally; type: functional; settings: ip
Mus musculus [7] = assay: Antagonist activity in forced swim model, in vivo through intraperitoneal route; type: functional; settings: ip
[8] = target: T1, Glutamate receptor ionotropic, NMDA 1; assay: Compound was evaluated for in vitro inhibition of cortical neuron at NMDA receptor
Mus musculus [9] = assay: Compound was evaluated for elevation of cGMP in vivo through subcutaneous route; type: functional; settings: sc
Mus musculus [10] = assay: Compound was evaluated for passive avoidance in vivo through intraperitoneal route; type: functional; settings: ip
Mus musculus [11] = assay: In vivo antagonist activity against seizures elicited by NMDLA in mice administered intraperitoneally; type: functional; settings: ip
Mus musculus [12] = assay: In vivo antagonist activity against seizures elicited by audiogenic, administered intra peritoneally in mice; type: functional
Mus musculus [13] = assay: Antagonist activity in PCP hyperactivity seizure model in vivo through subcutaneous route; type: functional; settings: sc
Mus musculus [14] = assay: Antagonist activity in amphetamine hyperactivity seizure model in vivo through intraperitoneal route; type: functional; settings: ip
[15] = target: T1, Glutamate receptor ionotropic, NMDA 1; assay: Compound was evaluated for in vitro inhibition of cortical slice at NMDA receptor
Mus musculus [16] = assay: Antagonist activity in electroshock in vivo through intravenous route; type: functional
Mus musculus [17] = assay: In vivo antagonist activity against seizures elicited by audiogenic administered intra peritoneally in mice; type: functional
Mus musculus [18] = assay: In vivo antagonist activity against seizures elicited by audiogenic administered icv in mice; type: functional
[19] = Compound was evaluated for harmaline-induced cGMP seizure in vivo through ip route; type: functional
Mus musculus [20] = assay: In vivo antagonist activity against seizures elicited by audiogenic, administered perorally in mice; type: functional; settings: po
Mus musculus [21] = assay: In vivo antagonist activity against seizures elicited by NMDA in mice administered perorally; type: functional; settings: po
Mus musculus [22] = assay: In vivo antagonist activity against seizures elicited by NMDLA in mice administered intravenously; type: functional; settings: iv
Rattus norvegicus [23] = assay: Antagonist activity for neuroprotection, in rat MCAO in vivo through intravenous bolus+infusion route
Mus musculus [24] = assay: Antagonist activity in PTZ seizure model in vivo through intravenous route; type: functional
Mus musculus [25] = assay: Antagonist activity in electroshock model in vivo through intravenous route; type: functional
Rattus norvegicus [26] = assay: Compound was evaluated for neuroprotection, rat MCAO in vivo through iv route; type: functional
[27] = target: Glutamate [NMDA] receptor; assay: Compound was evaluated for in vitro inhibition of myenteric plexus, guinea pig at NMDA receptor; type: protein-complex assay, Cavia porcellus
Mus musculus [28] = assay: Antagonist activity in audiogenic seizure model in vivo through icv route; type: functional

- IC50 (Glutamate NMDA receptor [1]): 410 nM
SMILES: O=c1[nH][nH]c(=O)c2c1[nH]c1cc(Cl)cc(Cl)c12
- MED50 (Gerbillinae): 10 mg/kg

- IC50 (Glutamate NMDA receptor [1]): 2.6 nM
SMILES: O=C(C[C@@H]1CCc2cc(Br)cc3[nH]c(=O)c(=O)n1c23)Nc1ccccc1

- IC50 (Glutamate NMDA receptor [1]): 27 nM
SMILES: NCc1ccc(NC(=O)CCc2c(C(=O)O)[nH]c3cc(Cl)cc(Cl)c23)cc1

- IC50 (Glutamate NMDA receptor [1]): 40 nM
- EC50 (Glutamate NMDA receptor [2]): 140 nM
SMILES: NC1(C(=O)O)CC1 [1-Aminocyclopropane carboxylic acid]

- IC50 (Glutamate NMDA receptor [1]): 960 nM
SMILES: O=C(O)Cc1c(C(=O)O)[nH]c2cc(Cl)ccc12
- ED50 (Rattus norvegicus [3]): 5.4 µg
- ED50 (Rattus norvegicus [3]; Rattus norvegicus, ip, read-out: ED50): > 50 mg/kg

- IC50 (Glutamate NMDA receptor [1]): 4800 nM
SMILES: N#Cc1cc2c(cc1[N+](=O)[O-])=NC(=O)C(=O)N=2

- IC50 (Glutamate NMDA receptor [1]): 19000 nM
- IC50 [4]: 18500 nM
SMILES: NC1(C(=O)O)CCC1 [1-AMINOCYCLOBUTANE CARBOXYLIC ACID]

- IC50 (Glutamate NMDA receptor [1]): > 40000 nM
SMILES: COC(=O)C1(N)CC1
- ED50 (Mus musculus [5]): 200 mg/kg
- ED50 (Mus musculus [6]): 46 mg/kg
- ED50 (Mus musculus [7]): 100 mg/kg

- IC50 (Glutamate NMDA receptor [1]): 1300 nM
- Ki [8]: 750 nM
SMILES: N[C@H]1C(=O)N(O)C[C@H]1O

SMILES: N[C@@H]1CONC1=O [CYCLOSERINE]
- ED50 (Mus musculus [9]): 1.25 mg/kg
- ED50 (Mus musculus [10]): 3 mg/kg

- IC50 (Glutamate NMDA receptor [1]): 12500 nM
- Ki [8]: 2500 nM
SMILES: N[C@@H]1CCN(O)C1=O
- ED50 (Mus musculus [11]): 890 mg/kg
- ED50 (Mus musculus [12]): 53 mg/kg
- ED50 (Mus musculus [13]): 30 mg/kg
- ED50 (Mus musculus [14]): 30 mg/kg

- IC50 (Glutamate NMDA receptor [1]): 120 nM
- IC50 [15]: 11000 nM
SMILES: O=C(NS(=O)(=O)c1ccccc1)c1nc2cc(Cl)c(Cl)cc2[nH]c1=O
- ED50 (Mus musculus [16]): > 100 mg/kg

SMILES: NCc1ccc(CC(=O)N[C@H]2C[C@H](C(=O)O)Nc3cc(Cl)cc(Cl)c32)cc1
- ED50 (Mus musculus [17]): 39 mg/kg
- ED50 (Mus musculus [18]): 3.5

- IC50 (Glutamate NMDA receptor [1]): 110 nM
SMILES: O=C(O)Cn1c(=O)c(=O)[nH]c2cc(Cl)c(Cl)cc21

- IC50 (Glutamate NMDA receptor [1]): 31 nM
SMILES: O=c1cc(O)c2c(Cl)cc(Cl)cc2[nH]c1=O

- IC50 (Glutamate NMDA receptor [1]): 630 nM
SMILES: CCOC(=O)Cc1c(C(=O)O)[nH]c2cc(Cl)ccc12
- MED50 [19]: 100 mg/kg

- IC50 (Glutamate NMDA receptor [1]): 460 nM
SMILES: O=C(O)c1nc2cc(Cl)c(Cl)cc2nc1O [6,7-DICHLORO-3-HYDROXY-2-QUINOXALINECARBOXYLIC ACID]

SMILES: O=C1C2CC(CCN2)N1O (centres undefined)
- IC50 (Glutamate NMDA receptor [1]): 19000 nM
- Ki [8]: 3500 nM

SMILES: O=c1[nH]c2cc(Cl)ccc2c(O)c1-c1cccc(Oc2ccccc2)c1
- ED50 (Mus musculus [20]): 0.9 mg/kg
- ED50 (Mus musculus [12]): 0.9 mg/kg

- IC50 (Glutamate NMDA receptor [1]): 1400 nM
- Ki [8]: 650 nM
SMILES: C[C@@H]1CN(O)C(=O)[C@@H]1N
- ED50 (Mus musculus [17]): 5.1 mg/kg
- ED50 (Mus musculus [21]): 44 mg/kg
- ED50 (Mus musculus [22]): 20 mg/kg
- ED50 (Rattus norvegicus [23]): 13.5 mg/kg
- ED50 (Mus musculus [24]): 13 mg/kg
- ED50 (Mus musculus [25]): 26 mg/kg

- IC50 (Glutamate NMDA receptor [1]): 400 nM
- IC50 [27]: 5000 nM
SMILES: O=C(O)c1cc(S)c2ccc(Cl)cc2n1
- ED50 (Rattus norvegicus [26]): 20 mg/kg

SMILES: O=C(O)c1cc(=O)c2ccccc2[nH]1 [TRANSTORINE]
- ED50 (Mus musculus [17]): > 250 mg/kg
- ED50 (Mus musculus [28]): 20 nM
